In article PMC7143284, “A Phenotarget Approach for Identifying an Alkaloid Interacting with the Tuberculosis Protein Rv1466” (Marine Drugs, 2020):

Molecular target: Rv1466 (Mycobacterium tuberculosis, UniProt O53157)
Assay: […]; bound species is […] Da (half of the disulfide dimer)
Type: binding

Chain of Rv1466 (O53157 1-115 limits assumed): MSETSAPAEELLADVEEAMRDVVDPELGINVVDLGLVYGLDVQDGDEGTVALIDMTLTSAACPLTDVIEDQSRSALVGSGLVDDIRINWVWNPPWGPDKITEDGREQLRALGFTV

## COc1ccc(-c2nc(N)n(C)c2SSc2c(-c3ccc(OC)cc3)nc(N)n2C)cc1 [polycarpine]
  Kd: 5.3 ± 0.4 µM
